Experimental data published in PMC5177656, “Cytosolic Triosephosphate Isomerase from Arabidopsis thaliana Is Reversibly Modified by Glutathione on Cysteines 127 and 218” (Frontiers in Plant Science, 2016).

Columns and labels:
[1] = target: GRXC2 (Arabidopsis thaliana, UniProt Q9FNE2); experiment: GSH-disulfide transhydrogenase assay coupled to glutathione reductase, NADPH at […] nm; assay type: biochemical; settings: 0.7 mM HED, 1 mM GSH, 0.2 mM NADPH, pH 8.0, 30°C
[2] = target: GRXC1 (Arabidopsis thaliana, UniProt Q8L8T2); experiment: as above; assay type: biochemical; settings: 0.7 mM HED, 1 mM GSH, 0.2 mM NADPH, pH 8.0, 30°C
GRXC1, sequence (Q8L8T2 whole entry): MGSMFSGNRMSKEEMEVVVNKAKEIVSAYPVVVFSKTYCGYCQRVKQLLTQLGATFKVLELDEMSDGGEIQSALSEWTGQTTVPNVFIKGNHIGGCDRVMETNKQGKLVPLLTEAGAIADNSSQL

GRXC2, sequence (Q9FNE2 whole entry): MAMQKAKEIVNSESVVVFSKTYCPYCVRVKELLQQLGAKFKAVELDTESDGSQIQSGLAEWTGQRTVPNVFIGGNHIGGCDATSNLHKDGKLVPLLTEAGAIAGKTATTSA

SMILES: OCCSSCCO [HED]
- GSH-disulfide transhydrogenase assay coupled to glutathione reductase, NADPH at [1]: specific activities of recombinant GRXs were measured using the artificial substrate HED
- GSH-disulfide transhydrogenase assay coupled to glutathione reductase, NADPH at [2]: specific activities of recombinant GRXs were measured using the artificial substrate HED
